These results are taken from PMC4792161, “A novel pyrazole derivative protects from ovariectomy-induced osteoporosis through the inhibition of NADPH oxidase” (Scientific Reports, 2016).

Marks after values point to notes of the source that are not given here.

Data set [1] is described as follows: Direct ROS (H2O2) scavenging in vitro. Particulars: 1 mM NAC, 1 mM H2O2, control scavenger. An excerpt: Based on the notion that the differentiation of OCs is mediated by Nox1/2/4-dependent ROS generation, we have performed a high throughput enzyme inhibitor screening assay to identify chemical compounds having Nox1/2/4 inhibitory activity for the development of an anti-osteoporosis agent. Purified Drosophila membranes expressing human Nox1, Nox2, or Nox4 were used to monitor ROS production by determining the oxidation of lucigenin, evident as chemiluminescence, in the absence or presence of chemical compound[18]. A chemical library containing 31,000 compounds was screened to identify Nox inhibitors. […] (Fig. 1B, Supplementary Fig. S2). […] Moreover, we investigated whether Ewha-18278 can directly scavenge ROS in vitro.
Supplementary Figure S3. (A) Ewha-18278 compounds can not directly scavenge superoxide or other reactive species in vitro. ROS (H2O2) measured with lucigenin. Reaction mixtures contained 1 […]
Luminescence measured over 30 min at 37
°C with luminometor (Gloma X luminometor, Turner BioSystem). […]
the phagocytosis of zymosan. […]
incubated with FITC-zymosan particles, and internalized fluorescence was measured by flow cytometry. The data are presented as the MFI of internalized FITC. Data represent mean ± S.D. […]

For a further data set, the system named is bone density. The arrangement: method as in PMID 16754727. The note with it: estrogen replacement; cited from earlier work.
Data set [2] has as its system OVX-induced osteoporotic ddY mice. Briefly: Femur histopathology-histomorphometry in OVX mice. The class given is in vivo. The note with it: 2.5 mg/kg oral once daily 28 days. The protocol: Risedronate sodium (2.5 mg/kg) served as a reference compound. […] Histopathology and histomorphometrical analyses including trabecular bone volume (BV/TV), trabecular bone number (Tb.N), trabecular bone length (Tb.Le), trabecular bone thickness (Tb.Th), cortical bone thickness (Ct.Th), OC number (N.Oc), bone mineral density (BMD) and bone strength (failure load, FL) were conducted.
(§1) The study was reviewed and approved by the Institutional Animal Care and Use Committee (IACUC) of Center for Laboratory Animal Sciences, Ewha Industry-University Cooperation Foundation, Ewha Womans University. Experimental methods were carried out in accordance with the approved ethic guidelines in Ewha Industry-University Cooperation Foundation, Ewha Womans University. Beginning 4 weeks after OVX, the female ddY mice received 2.5, 5, 10, or 20 mg/kg of #18–278, 2.5 mg/kg of risedronate, or vehicle once daily for 28 days. The Changes in body weight, bone weight, bone mineral density (BMD), failure load (FL), bone calcium (Ca), inorganic phosphorus (P) contents, histology and histomorphology were monitored. Serum osteocalcin and bone specific alkaline phosphatase (bALP) were monitored in mice receiving Ewha-18278.
The left side of femur of each mouse was separated and fixed in 10% neutral buffered formalin and decalcified in a solution comprised of 24.4% formic acid and 0.5N sodium hydroxide for 5 days, with spent solution replaced with fresh solution each day. Each sample was embedded in paraffin, sectioned to a thickness of 3–4 μm and exposed to with Hematoxylin & Eosin (H&E) stain. Histomorphometry was conducted as for bone mass and structure with bone resorption in a uniform area of epiphyseal regions of femur (growth plate regions were excluded). Cortical bone thickness was measured in the mid-shaft region of the femur.

The test system of another data set is OVX rats. The note with it: 2.5 mg/kg/day for 8 weeks; cited from earlier work.
Data set [3] deals with OVX-induced osteoporotic ddY mice. Put plainly: Tibia weights (wet, dry, ash) in OVX mice. The class given is in vivo. The note with it: 2.5 mg/kg oral once daily 28 days. As to the method: (§2) The right sides of femur and tibia were weighed and then dried at 120 °C for 8 hours. The dried bones were carbonized at 800 °C for 6 hours in a furnace (Daihan Scientific, Korea) to detect ash absolute weights, after measurement of BMD and failure load. To reduce the individual body weight differences, the relative weight (%) was calculated using body weight at sacrifice and absolute weight as [Relative bone weights = (Absolute bone weight/Body weight at sacrifice) ×100]. In addition, ashed bones were ground and dissolved in nitric acid. In diluted solution, Ca and P contents were calculated (mg/g bone) using an orthocresolphthalein complex and enzyme methods, respectively. The Ca/P ratio (%) was calculated as (Tibia Ca contents/Tibia P contents) ×100.
Supplementary Table S4. Tibia Weights in OVX Mice Values are expressed mean ± S.D. of eight mice Risedronate sodium was administered at 2.5mg/kg levels a p<0.01 as compared with sham control […]
material OVX = ovariectomy
Groups Tibia absolute weights (g) Tibia relative weights (% of body weight)Wet Dry Ash Wet Dry Ash

Data set [4] has the same test system. Put plainly: Bone strength (failure load, three-point bending test) in OVX mice. The class given is in vivo. The note with it: oral once daily 28 days; risedronate 2.5 mg/kg.
Data set [5] has the same test system. Put plainly: Tibia histopathology-histomorphometry in OVX mice. The class given is in vivo. Particulars: 2.5 mg/kg oral once daily 28 days.
A short description of data set [6]: Body weight changes in OVX mice. The class given is in vivo, ddY mice. The note with it: risedronate 2.5 mg/kg; Ewha-18278 2.5, 5, 10 and 20 mg/kg; 28 days. The protocol:
as §1
R esi dronat e 2. 5mg/kg t reated mi ce […]
D ay after administration (d)
Supplementary Figure S7. Body weight changes in OVX mice. We selected eight mice per group showing more increases of body weights as compared with sham-operated mice and regarded as good OVX animals at four weeks after OVX surgery, consequently, significant increases of body weights were detected in all OVX groups as compared with sham control mice throughout 28 days of […]
mice, in the present study. Values are expressed mean ± S.D. of eight mice. Risedronate sodium was administered at 2.5mg/kg levels. […]

Data set [7] relates to OVX-induced osteoporotic ddY mice. Briefly: Femur weights (wet, dry, ash) in OVX mice. The class given is in vivo. The note with it: 2.5 mg/kg oral once daily 28 days. The protocol:
as §2

For `CC(=O)N[C@@H](CS)C(=O)O` [N-acetyl cysteine, reference compound], the “change in hydrogen peroxide concentration (ROS scavenging)” value in data set [1] is recorded as “decrease in hydrogen peroxide concentration”.
Take `O=C(c1ccc(OCCN2CCCCC2)cc1)c1c(-c2ccc(O)cc2)sc2cc(O)ccc12` [Raloxifene]: the “increase of bone density” value with bone density is 3–4%.
For the compound `O=P(O)(O)C(O)(Cc1cccnc1)P(=O)(O)O` [Risedronate, Risedronate sodium, reference compound], in data set [2], the “BV/TV (trabecular bone volume)” value was 38.08 ± 7.20 ^c %; the “Ct.Th (cortical bone thickness)” value is 128.36 ± 15.57 ^a μm; the “N.OC/BS (osteoclast cell number, N/epiphyseal)” value was 19.00 ± 2.93 ^eg numbers; the “Tb.Le (trabecular bone length)” value is 1.04 ± 0.12 ^ac mm. Also, in data set [2], the “Tb.N (trabecular bone number, N/epiphyseal)” value is 24.50 ± 4.00 ^eg numbers and the “Tb.Th (trabecular bone thickness)” value is 47.25 ± 4.73 ^ad μm. The “microstructural and biomechanical features of bone” value in the data set with OVX rats is “maintains microstructural and biomechanical features of bone”. Also, in data set [3], the “Tibia absolute weights, Ash” value turned out to be 0.031 g; the “Tibia absolute weights, Dry” value was 0.050 g; the “Tibia absolute weights, Wet” value was 0.071 g; the “Tibia relative weights, Ash” value is on record as 0.085 % of body weight. Also, in data set [3], the “Tibia relative weights, Dry” value is 0.137 % of body weight and the “Tibia relative weights, Wet” value is 0.196 % of body weight. Moreover, the “bone strength (FL) of femur and tibia compared to control OVX” value in [4] is “did not show any favorable effects”. Moreover, in data set [5], the “BV/TV (trabecular bone volume)” value was 35.71 ± 5.63 ^c %; the “Ct.Th (cortical bone thickness)” value was 113.81 ± 14.45 ^a μm; the “N.OC/BS (osteoclast cell number, N/epiphyseal)” value is reported as 19.38 ± 3.20 ^ac numbers; the “Tb.Le (trabecular bone length)” value is recorded as 0.76 ± 0.12 ^ac mm. Moreover, in data set [5], the “Tb.N (trabecular bone number, N/epiphyseal)” value was 19.25 ± 1.67 ^bc numbers and the “Tb.Th (trabecular bone thickness)” value was 43.52 ± 8.73 ^ac μm. Moreover, the “body weights as compared with OVX control mice” value in data set [6] was “no meaningful changes”. Moreover, in [7], the “Femur absolute weights, Ash” value came to 0.037 g; the “Femur absolute weights, Dry” value was determined as 0.066 g; the “Femur absolute weights, Wet” value is given as 0.096 g; the “Femur relative weights, Ash” value is recorded as 0.102 % of body weight. Further, in data set [7], the “Femur relative weights, Dry” value is given as 0.181 % of body weight and the “Femur relative weights, Wet” value is 0.263 % of body weight.
